Laboratory results reported in patent US11795423B2, “Micro-fabricated multi-well chips for long term automated imaging of C. elegans growth and behavior” (THE TRUSTEES OF THE UNIVERSITY OF PENNSYLVANIA, priority 2014, dated 2023).

System: C. elegans
Method: NGM buffer is NGM agar without agar, peptone, or cholesterol.
A moat solution of 100 mM CuSO4 was prepared, which was approximately in osmotic equilibrium with the agar medium. The moat solution was added to the moats by pipette.

With `O=S(=O)([O-])[O-].[Cu+2]` [copper sulfate] the worms escaped (after 3 days, moat containing 100 mM copper sulfate, NGM liquid moat as comparison (about 20%)) was 5% and the “preventing animals from leaving their wells (fraction of worms escaping wells as a function of time)” value (moat containing 100 mM CuSO4, n=96, versus moat containing NGM buffer, FIG. 7b) was “superior”.
